Laboratory results published in patent publication US20240299376A1, “METHOD OF TREATING A CONDITION USING A […] EFFECTIVE DOSE OF 1-(1-OXO-1,2-DIHYDROISOQUINOLIN-5-YL)-5-(TRIFLUOROMETHYL)-N-(2-(TRIFLUOROMETHYL)PYRIDIN-4-YL)-1H-PYRAZOLE-4-CARBOXAMIDE” (Janssen Pharmaceutica NV, priority 2021, published 2024).
Like-named read-outs stand apart in the source and are kept apart here.

Assay: FIH study 67856633LYM1001 plasma pharmacokinetics
Format: in vivo, human
Conditions: human, plasma
Description: The study consists of a dose escalation phase (Part 1), to determine the recommended Phase 2 dose(s) (RP2D[s]), followed by an expansion phase at the RP2D(s) (Part 2). The dose escalation phase is supported using an adaptive dose escalation strategy guided by the modified continual reassessment method (mCRM) based on a Bayesian Logistic Regression Model (BLRM) with escalation with overdose control (EWOC) principle. The mCRM design allows the use of all cumulative dose-limiting toxicities (DLT) data up to the current dose cohort.
In Part 1, subjects were enrolled in cohorts of daily oral doses at 50 mg, 100 mg, 200 mg (1×200 mg or 4×50 mg), 300 mg (3×100 mg or 6×50 mg), 400 mg (2×200 mg or 8×50 mg), and 600 mg (3×200 mg), and loading dosing cohorts—400 mg loading dose once daily for 14 days, followed by 300 mg once daily, and 300 mg loading dose twice daily for 7 days followed by 300 mg once daily. In Part 2, subjects received daily oral doses of 300 mg.
In Part 1, PK data were available in subjects receiving doses of 50 mg (1×50 mg), 100 mg (2×50 mg), 200 mg (4×50 mg or 1×200 mg), 300 mg (6×50 mg or 3×100 mg), 400 mg (8×50 mg or 2×200 mg), and 600 mg (3×200 mg). Pharmacokinetic data were also available from the loading dose regimens of 400 mg (8×50 mg) loading dose once daily for 14 days followed by 300 mg (6×50 mg) once daily, and 300 mg (6×50 mg) loading dose twice daily for 7 days followed by 300 mg (6×50 mg) once daily.

O=C(Nc1ccnc(C(F)(F)F)c1)c1cnn(-c2cccc3c(=O)[nH]ccc23)c1C(F)(F)F [Compound A, 1-(1-oxo-1,2-dihydroisoquinolin-5-yl)-5-(trifluoromethyl)-N-[2-(trifluoromethyl)pyridin-4-yl]-1H-pyrazole-4-carboxamide]
Cmax (oral, 100 mg, Cycle 2 Day 1, 50 mg capsule, cohort 2 × 50 mg, mean, read-out: Cmax): 19900 ng/mL | Tmax (oral, 100 mg, Cycle 2 Day 1, 50 mg capsule, cohort 2 × 50 mg, median, read-out: Tmax): 2 h | AUC (oral, 200 mg, Cycle 1 Day 1, 50 mg capsule, cohort 4 × 50 mg, Subject 100032 excluded, mean, read-out: AUCτ): 118 µg·h/mL | Cmax (oral, 200 mg, Cycle 1 Day 1, 50 mg capsule, cohort 4 × 50 mg, Subject 100032 excluded, mean, read-out: Cmax): 6750 ng/mL | Tmax (oral, 200 mg, Cycle 1 Day 1, 50 mg capsule, cohort 4 × 50 mg, Subject 100032 excluded, median, read-out: Tmax): 4 h | AUC (oral, 200 mg, Cycle 1 Day 1, 200 mg capsule, cohort 200 mg, mean, read-out: AUCτ): 61.9 µg·h/mL | Cmax (oral, 200 mg, Cycle 1 Day 1, 200 mg capsule, cohort 200 mg, mean, read-out: Cmax): 4060 ng/mL | Tmax (oral, 200 mg, Cycle 1 Day 1, 200 mg capsule, cohort 200 mg, median, read-out: Tmax): 4 h | AUC (oral, 200 mg, Cycle 1 Day 1, cohort 4 × 50 mg, with Subject 100032 data included, read-out: mean AUC): 139 µg·h/mL | Cmax (oral, 200 mg, Cycle 1 Day 1, cohort 4 × 50 mg, with Subject 100032 data included, read-out: mean Cmax): 8060 ng/mL | AUC (oral, 200 mg, Cycle 2 Day 1, 50 mg capsule, cohort 4 × 50 mg, Subject 100032 excluded, mean, read-out: AUCτ): 882 µg·h/mL | Cmax (oral, 200 mg, Cycle 2 Day 1, 50 mg capsule, cohort 4 × 50 mg, Subject 100032 excluded, mean, read-out: Cmax): 44800 ng/mL | Tmax (oral, 200 mg, Cycle 2 Day 1, 50 mg capsule, cohort 4 × 50 mg, Subject 100032 excluded, median, read-out: Tmax): 2 h | Cmax (oral, 200 mg, Cycle 2 Day 1, 200 mg capsule, cohort 200 mg, individual values, N = 2, read-out: Cmax): 25700 ng/mL | AUC (oral, 200 mg, Cycle 2 Day 1, 200 mg capsule, cohort 200 mg, read-out: AUCτ): 453 µg·h/mL | AUC (oral, 200 mg, Cycle 2 Day 1, cohort 4 × 50 mg, with Subject 100032 data included, read-out: mean AUC): 1140 µg·h/mL | Cmax (oral, 200 mg, Cycle 2 Day 1, cohort 4 × 50 mg, with Subject 100032 data included, read-out: mean Cmax): 58200 ng/mL | AUC (oral, 300 mg, Cycle 1 Day 1, 50 mg capsule, cohort 6 × 50 mg (300 mg QD), mean, n = 9, read-out: AUCτ): ~152 µg·h/mL | Cmax (oral, 300 mg, Cycle 1 Day 1, 50 mg capsule, cohort 6 × 50 mg (300 mg QD), mean, read-out: Cmax): ~8810 ng/mL | Tmax (oral, 300 mg, Cycle 1 Day 1, 50 mg capsule, cohort 6 × 50 mg (300 mg QD), median, read-out: Tmax): ~4 h | Cmax (oral, 300 mg, Cycle 1 Day 1, cohort 6 × 50 mg BID > QD (300 mg BID 7 days then 300 mg QD), mean, read-out: Cmax): 4310 ng/mL | Tmax (oral, 300 mg, Cycle 1 Day 1, cohort 6 × 50 mg BID > QD (300 mg BID 7 days then 300 mg QD), median, read-out: Tmax): ~6 h | AUC (oral, 300 mg, Cycle 2 Day 1, 50 mg capsule, cohort 6 × 50 mg (300 mg QD), mean, read-out: AUCτ): ~1140 µg·h/mL | Cmax (oral, 300 mg, Cycle 2 Day 1, 50 mg capsule, cohort 6 × 50 mg (300 mg QD), mean, read-out: Cmax): ~55200 ng/mL | Tmax (oral, 300 mg, Cycle 2 Day 1, 50 mg capsule, cohort 6 × 50 mg (300 mg QD), median, read-out: Tmax): ~4 h | Tmax (oral, 300 mg, Cycle 2 Day 1, cohort 6 × 50 mg BID > QD, individual values, N = 2, read-out: Tmax): ~3 h | AUC (oral, 400 mg, Cycle 1 Day 1, 50 mg capsule, cohort 8 × 50 mg, mean, read-out: AUCτ): 131 µg·h/mL | Cmax (oral, 400 mg, Cycle 1 Day 1, 50 mg capsule, cohort 8 × 50 mg, mean, read-out: Cmax): 7560 ng/mL | Tmax (oral, 400 mg, Cycle 1 Day 1, 50 mg capsule, cohort 8 × 50 mg, median, read-out: Tmax): 3 h | AUC (oral, 400 mg, Cycle 1 Day 1, 200 mg capsule, cohort 2 × 200 mg food adlib, mean, read-out: AUCτ): 112 µg·h/mL | Cmax (oral, 400 mg, Cycle 1 Day 1, 200 mg capsule, cohort 2 × 200 mg food adlib, mean, read-out: Cmax): 6830 ng/mL | Tmax (oral, 400 mg, Cycle 1 Day 1, 200 mg capsule, cohort 2 × 200 mg food adlib, median, read-out: Tmax): 4.5 h | AUC (oral, 400 mg, Cycle 1 Day 1, 200 mg capsule, cohort 2 × 200 mg, mean, read-out: AUCτ): 68 µg·h/mL | Cmax (oral, 400 mg, Cycle 1 Day 1, 200 mg capsule, cohort 2 × 200 mg, mean, read-out: Cmax): 4190 ng/mL | Tmax (oral, 400 mg, Cycle 1 Day 1, 200 mg capsule, cohort 2 × 200 mg, median, read-out: Tmax): 5 h | AUC (oral, 400 mg, Cycle 1 Day 1, cohort 8 × 50 mg > 6 × 50 mg (400 mg QD loading 14 days then 300 mg QD), Subject 100070 excluded, mean, read-out: AUCτ): 186 µg·h/mL | Cmax (oral, 400 mg, Cycle 1 Day 1, cohort 8 × 50 mg > 6 × 50 mg (400 mg QD loading 14 days then 300 mg QD), Subject 100070 excluded, mean, read-out: Cmax): 10300 ng/mL | Tmax (oral, 400 mg, Cycle 1 Day 1, cohort 8 × 50 mg > 6 × 50 mg (400 mg QD loading 14 days then 300 mg QD), median, read-out: Tmax): 3 h | AUC (oral, 400 mg, Cycle 1 Day 1, cohort 8 × 50 mg > 6 × 50 mg, with Subject 100070 data included, read-out: mean AUC): 237 µg·h/mL | Cmax (oral, 400 mg, Cycle 1 Day 1, cohort 8 × 50 mg > 6 × 50 mg, with Subject 100070 data included, read-out: mean Cmax): 12800 ng/mL | AUC (oral, 400 mg, Cycle 2 Day 1, 50 mg capsule, cohort 8 × 50 mg, mean, read-out: AUCτ): 1590 µg·h/mL | Cmax (oral, 400 mg, Cycle 2 Day 1, 50 mg capsule, cohort 8 × 50 mg, mean, read-out: Cmax): 94100 ng/mL | Tmax (oral, 400 mg, Cycle 2 Day 1, 50 mg capsule, cohort 8 × 50 mg, median, read-out: Tmax): 3.5 h | AUC (oral, 400 mg, Cycle 2 Day 1, 200 mg capsule, cohort 2 × 200 mg food adlib, mean, read-out: AUCτ): 1330 µg·h/mL | Cmax (oral, 400 mg, Cycle 2 Day 1, 200 mg capsule, cohort 2 × 200 mg food adlib, mean, read-out: Cmax): 72300 ng/mL | Tmax (oral, 400 mg, Cycle 2 Day 1, 200 mg capsule, cohort 2 × 200 mg food adlib, median, read-out: Tmax): 8 h | AUC (oral, 400 mg, Cycle 2 Day 1, 200 mg capsule, cohort 2 × 200 mg, mean, read-out: AUCτ): 824 µg·h/mL | Cmax (oral, 400 mg, Cycle 2 Day 1, 200 mg capsule, cohort 2 × 200 mg, mean, read-out: Cmax): 43200 ng/mL | Tmax (oral, 400 mg, Cycle 2 Day 1, 200 mg capsule, cohort 2 × 200 mg, median, read-out: Tmax): 3 h | AUC (oral, 600 mg, Cycle 1 Day 1, 200 mg capsule, cohort 3 × 200 mg, individual values, N = 2, read-out: AUCτ): 123 µg·h/mL | Cmax (oral, 600 mg, Cycle 1 Day 1, 200 mg capsule, cohort 3 × 200 mg, individual values, N = 2, read-out: Cmax): 7790 ng/mL | Tmax (oral, 600 mg, Cycle 1 Day 1, 200 mg capsule, cohort 3 × 200 mg, individual values, N = 2, read-out: Tmax): 3 h | Cmax (oral, Cycle 2 Day 1, cohort 8 × 50 mg > 6 × 50 mg (400 mg QD loading 14 days then 300 mg QD), Subject 100070 excluded, mean, read-out: Cmax): 72200 ng/mL | AUC (oral, Cycle 2 Day 1, cohort 8 × 50 mg > 6 × 50 mg, Subject 100070 excluded, mean, read-out: AUCτ): 1700 µg·h/mL | Tmax (oral, Cycle 2 Day 1, cohort 8 × 50 mg > 6 × 50 mg, Subject 100070 excluded, median, read-out: Tmax): 3 h | AUC (oral, Cycle 2 Day 1, cohort 8 × 50 mg > 6 × 50 mg, with Subject 100070 data included, read-out: mean AUC): 1810 µg·h/mL | Cmax (oral, Cycle 2 Day 1, cohort 8 × 50 mg > 6 × 50 mg, with Subject 100070 data included, read-out: mean Cmax): 79700 ng/mL | Tmax (po, 50 mg, Cycle 2 Day 1, 50 mg capsule, oral daily administration, read-out: median Tmax): 2 to 4 h | Tmax (po, 200 mg, Cycle 2 Day 1, 200 mg capsule, oral daily administration, read-out: median Tmax): 3 to 8 h | Tmax (po, first oral dose at Cycle 1 Day 1, doses of 50 to 600 mg, read-out: median Tmax): 3 to 6 h
